Measured values as given in US20150005348A1, “AMIDE COMPOUND AND USE THEREOF FOR PEST CONTROL” (SUMITOMO CHEMICAL COMPANY, LIMITED, priority 2012, published 2015).

Test system: last instar larvae of common house mosquitos (Culexpipienspallens)
Assay: Larval mortality test on common house mosquitos in treated water (Test Example 5)
Assay type: in vivo
Details: Culicidae, 192 h; active ingredient 3.5 ppm in ion-exchanged water; 20 last instar larvae; observed after 8 days
Procedure: Each of the formulations of Compounds (4), (5), (11) and (12) of the present invention obtained in Formulation Example 15 was diluted with water, so as to have a concentration of active ingredient of 500 ppm, to prepare a test drug solution.
0.7 ml of the test drug solution was added to 100 ml of ion-exchanged water (a concentration of active ingredient of 3.5 ppm).

| SMILES | mortality at 3.5 ppm |
| --- | --- |
| O=C(/C=C/CCCCCCc1ccccc1)NCC1CCOC1 (stereo not shown) [Compound (4), (E)-N-(tetrahydrofuran-3-ylmethyl)-9-phenyl-2-noneneamide] | ≥ 95% |
| C/C(=C\C(=O)NCC1CCOCC1)CCCc1ccccc1 [Compound (12), (E)-N-(tetrahydropyran-4-ylmethyl)-3-methyl-6-phenyl-2-hexeneamide] | ≥ 95% |
| O=C(/C=C/CCCCCCCc1ccccc1)NCC1CCOC1 (stereo not shown) [Compound (5), (E)-N-(tetrahydrofuran-3-ylmethyl)-10-phenyl-2-deceneamide] | ≥ 95% |
| O=C(/C=C/CCCCCCc1ccccc1)NCC1CCOCC1 [Compound (11), (E)-N-(tetrahydropyran-4-ylmethyl)-9-phenyl-2-noneneamide] | ≥ 95% |
